Reference: patent US20230027066A1 (Urovant Sciences GmbH, priority 2019, published 2023)

What was measured:
[1] = Phase 1 multiple-dose study in healthy subjects, maximum MA4 heart rate; assay type: in vivo, human; settings: for Maximum MA4 HR (maximum change from baseline in moving average of heart rate over 4 hours postdose), LS mean (90% CI) / Maximum MA4 HR, difference from placebo (90% CI): Day 14
Protocol: More intensive assessments of heart rate and blood pressure were performed in healthy volunteers in several Phase 1 studies. […] Doses ranged from 25 to 400 mg once daily for 7 to 28 days depending on the cohort. Least squares mean and 90% confidence intervals of maximum change from baseline in moving average of heart rate over 4 hours postdose (MA4 HR) are presented in Table 7.

[2] = ABPM study, in-clinic vital signs; assay type: in vivo, human; settings: SAF
Protocol: Safety was evaluated by assessment of clinical laboratory tests, physical examinations, and vital signs measurements from office visits at various time points during the study, and by the documentation of AEs.
Tables 106, 107, and 108 show the changes to in-clinic measurements of systolic blood pressure, diastolic blood pressure, and heart rate over the treatment period.
For subjects with a body weight of at least about 65.4 kg, there was no difference between treatment and placebo in the number of subjects with a ≥5, ≥10, or ≥15 mm Hg increase in systolic blood pressure. The same was true for subjects over the age of 66.

[3] = Baseline to Day 28, subgroup Age <= 75th percentile (66 years)
[4] = Baseline to Day 28, subgroup Age > 75th percentile (66 years)
[5] = Baseline to Day 28, subgroup Body Weight <= 25th Percentile (65.4 kg)
[6] = Baseline to Day 28, subgroup Body Weight > 25th Percentile (65.4 kg)
[7] = Baseline to Day 28, subgroup Pre-existing hypertension: NO
[8] = Baseline to Day 28, subgroup Pre-existing hypertension: YES
[9] = Baseline to Day 28, subgroup eGFR <= 25th Percentile (72 mL/min/1.73 m^2)
[10] = Baseline to Day 28, subgroup eGFR > 25th Percentile (72 mL/min/1.73 m^2)
[11] = Baseline to End of Treatment, subgroup <= 25th percentile BW (65.4 kg)
[12] = Baseline to End of Treatment, subgroup >25th percentile BW (65.4 kg)
[13] = Baseline to End of Treatment, subgroup Age <= 75th percentile (66 years)
[14] = Baseline to End of Treatment, subgroup Age > 75th percentile (66 years)

O=C(Nc1ccc(C[C@@H]2CC[C@H]([C@H](O)c3ccccc3)N2)cc1)[C@@H]1CCc2nccc(=O)n21 [Vibegron, (6S)-N-[4-[[(2S,5R)−5-[(R)-hydroxy(phenyl)methyl]pyrrolidin−2-yl]methyl]phenyl]−4-oxo−7,8-dihydro−6H-pyrrolo[1,2-a]pyrimidine−6-carboxamide]
Maximum MA4 HR (maximum change from baseline in moving average of heart rate over 4 hours postdose), LS mean (90% CI) ([1]; vibegron 25 mg once daily): 1.47 (−3.24, 6.17) bpm
Maximum MA4 HR, difference from placebo (90% CI) ([1]; vibegron 25 mg once daily): −1.60 (−7.09, 3.88) bpm
Maximum MA4 HR (maximum change from baseline in moving average of heart rate over 4 hours postdose), LS mean (90% CI) ([1]; vibegron 50 mg once daily): 1.50 (−2.79, 5.79) bpm
Maximum MA4 HR, difference from placebo (90% CI) ([1]; vibegron 50 mg once daily): −1.57 (−6.70, 3.56) bpm
maximum MA4 HR, difference from placebo ([1]; vibegron 100 mg): < 1 bpm
Maximum MA4 HR (maximum change from baseline in moving average of heart rate over 4 hours postdose), LS mean (90% CI) ([1]; vibegron 100 mg once daily): 3.28 (−1.02, 7.57) bpm
Maximum MA4 HR, difference from placebo (90% CI) ([1]; vibegron 100 mg once daily): 0.21 (−4.93, 5.34) bpm
Maximum MA4 HR (maximum change from baseline in moving average of heart rate over 4 hours postdose), LS mean (90% CI) ([1]; vibegron 150 mg once daily): 3.17 (−1.13, 7.46) bpm
Maximum MA4 HR, difference from placebo (90% CI) ([1]; vibegron 150 mg once daily): 0.10 (−5.04, 5.23) bpm
Maximum MA4 HR (maximum change from baseline in moving average of heart rate over 4 hours postdose), LS mean (90% CI) ([1]; vibegron 200 mg once daily): 5.67 (0.96, 10.37) bpm
Maximum MA4 HR, difference from placebo (90% CI) ([1]; vibegron 200 mg once daily): 2.60 (−2.89, 8.08) bpm
Maximum MA4 HR (maximum change from baseline in moving average of heart rate over 4 hours postdose), LS mean (90% CI) ([1]; vibegron 300 mg once daily): 9.06 (4.76, 13.35) bpm
Maximum MA4 HR, difference from placebo (90% CI) ([1]; vibegron 300 mg once daily): 5.98 (0.85, 11.12) bpm
Maximum MA4 HR (maximum change from baseline in moving average of heart rate over 4 hours postdose), LS mean (90% CI) ([1]; vibegron 400 mg once daily): 10.33 (6.04, 14.63) bpm
Maximum MA4 HR, difference from placebo (90% CI) ([1]; vibegron 400 mg once daily): 7.26 (2.13, 12.39) bpm
In-clinic DBP (mmHg) change from baseline ≥5, subjects ([2]; Baseline to Day 28): 24 (23.3) n (%)
In-clinic DBP (mmHg) change from baseline ≥10, subjects ([2]; Baseline to Day 28): 9 (8.7) n (%)
In-clinic DBP (mmHg) change from baseline ≥15, subjects ([2]; Baseline to Day 28): 2 (1.9) n (%)
In-clinic HR (bpm) change from baseline ≥5, subjects ([2]; Baseline to Day 28): 24 (23.3) n (%)
In-clinic HR (bpm) change from baseline ≥10, subjects ([2]; Baseline to Day 28): 8 (7.8) n (%)
In-clinic HR (bpm) change from baseline ≥15, subjects ([2]; Baseline to Day 28): 3 (2.9) n (%)
In-clinic SBP (mmHg) change from baseline ≥5, subjects ([2]; Baseline to Day 28): 33 (32.0) n (%)
In-clinic SBP (mmHg) change from baseline ≥10, subjects ([2]; Baseline to Day 28): 22 (21.4) n (%)
In-clinic SBP (mmHg) change from baseline ≥15, subjects ([2]; Baseline to Day 28): 10 (9.7) n (%)
In-clinic SBP change from baseline ≥5, subjects [2, 3]: 28 (34.6) n (%)
In-clinic SBP change from baseline ≥10, subjects [2, 3]: 18 (22.2) n (%)
In-clinic SBP change from baseline ≥15, subjects [2, 3]: 9 (11.1) n (%)
In-clinic SBP change from baseline ≥5, subjects [2, 4]: 5 (22.7) n (%)
In-clinic SBP change from baseline ≥10, subjects [2, 4]: 4 (18.2) n (%)
In-clinic SBP change from baseline ≥15, subjects [2, 4]: 1 (4.5) n (%)
In-clinic SBP change from baseline ≥5, subjects [2, 5]: 9 (32.1) n (%)
In-clinic SBP change from baseline ≥10, subjects [2, 5]: 6 (21.4) n (%)
In-clinic SBP change from baseline ≥15, subjects [2, 5]: 2 (7.1) n (%)
In-clinic SBP change from baseline ≥5, subjects [2, 6]: 24 (32.0) n (%)
In-clinic SBP change from baseline ≥10, subjects [2, 6]: 16 (21.3) n (%)
In-clinic SBP change from baseline ≥15, subjects [2, 6]: 8 (10.7) n (%)
In-clinic SBP change from baseline ≥5, subjects [2, 7]: 20 (31.3) n (%)
In-clinic SBP change from baseline ≥10, subjects [2, 7]: 13 (20.3) n (%)
In-clinic SBP change from baseline ≥15, subjects [2, 7]: 6 (9.4) n (%)
In-clinic SBP change from baseline ≥5, subjects [2, 8]: 13 (33.3) n (%)
In-clinic SBP change from baseline ≥10, subjects [2, 8]: 9 (23.1) n (%)
In-clinic SBP change from baseline ≥15, subjects [2, 8]: 4 (10.3) n (%)
In-clinic SBP change from baseline ≥5, subjects [2, 9]: 7 (23.3) n (%)
In-clinic SBP change from baseline ≥10, subjects [2, 9]: 4 (13.3) n (%)
In-clinic SBP change from baseline ≥15, subjects [2, 9]: 1 (3.3) n (%)
In-clinic SBP change from baseline ≥5, subjects [2, 10]: 26 (35.6) n (%)
In-clinic SBP change from baseline ≥10, subjects [2, 10]: 18 (24.7) n (%)
In-clinic SBP change from baseline ≥15, subjects [2, 10]: 9 (12.3) n (%)
In-clinic DBP (mmHg) change from baseline ≥5, subjects ([2]; Baseline to End of Treatment): 31 (29.5) n (%)
In-clinic DBP (mmHg) change from baseline ≥10, subjects ([2]; Baseline to End of Treatment): 12 (11.4) n (%)
In-clinic DBP (mmHg) change from baseline ≥15, subjects ([2]; Baseline to End of Treatment): 7 (6.7) n (%)
In-clinic HR (bpm) change from baseline ≥5, subjects ([2]; Baseline to End of Treatment): 37 (35.2) n (%)
In-clinic HR (bpm) change from baseline ≥10, subjects ([2]; Baseline to End of Treatment): 12 (11.4) n (%)
In-clinic HR (bpm) change from baseline ≥15, subjects ([2]; Baseline to End of Treatment): 4 (3.8) n (%)
In-clinic SBP (mmHg) change from baseline ≥5, subjects ([2]; Baseline to End of Treatment): 36 (34.3) n (%)
In-clinic SBP (mmHg) change from baseline ≥10, subjects ([2]; Baseline to End of Treatment): 22 (21.0) n (%)
In-clinic SBP (mmHg) change from baseline ≥15, subjects ([2]; Baseline to End of Treatment): 13 (12.4) n (%)
In-clinic SBP change from baseline ≥5, subjects [2, 11]: 13 (43.3) n (%)
In-clinic SBP change from baseline ≥10, subjects [2, 11]: 9 (30.0) n (%)
In-clinic SBP change from baseline ≥15, subjects [2, 11]: 5 (16.7) n (%)
In-clinic SBP change from baseline ≥5, subjects [2, 12]: 23 (30.7) n (%)
In-clinic SBP change from baseline ≥10, subjects [2, 12]: 13 (17.3) n (%)
In-clinic SBP change from baseline ≥15, subjects [2, 12]: 8 (10.7) n (%)
In-clinic SBP change from baseline ≥5, subjects [2, 13]: 29 (34.9) n (%)
In-clinic SBP change from baseline ≥10, subjects [2, 13]: 18 (21.7) n (%)
In-clinic SBP change from baseline ≥15, subjects [2, 13]: 10 (12.0) n (%)
In-clinic SBP change from baseline ≥5, subjects [2, 14]: 7 (31.8) n (%)
In-clinic SBP change from baseline ≥10, subjects [2, 14]: 4 (18.2) n (%)
